Broadly, the IC50 is the midpoint of a concentration-inhibition curve.

The values that follow come from ChEMBL document CHEMBL4732256, “Synthesis and biological activities of novel mitochondria-targeted artemisinin ester derivatives” (Bioorg Med Chem Lett, 2021).

Activity calls are given as the source filed them. The calls are words filed in the database; no cut-off is given here.

One assay concerns SMMC-7721. The assay is described as follows: Cytotoxicity against human SMMC-7721 cells assessed as reduction in cell viability by MTT assay. The class given is functional, cell-based. A general note: Tetrazolium dyes change colour on reduction, which living cells bring about.
The subject of another assay is HepG2. The assay is described as follows: Cytotoxicity against human HepG2 cells assessed as reduction in cell viability by MTT assay. The class given is functional, cell-based.
The subject of assay [1] is OVCAR-3. In words: Cytotoxicity against human OVCAR3 cells assessed as reduction in cell viability by MTT assay. The class given is functional, cell-based.
The test system of assay [2] is A549. In words: Cytotoxicity against human A549 cells assessed as reduction in cell viability by MTT assay. The class given is functional, cell-based.
A further assay concerns J82. The assay is described as follows: Cytotoxicity in human J82 cells assessed as reduction in cell viability by MTT assay. It counts as functional, cell-based.
For another assay, the system named is HUVEC. In words: Cytotoxicity against HUVEC assessed as reduction in cell viability by MTT assay. The following applies: Homo sapiens. It counts as cell-based.
Assay [3] deals with OVCAR-3. The assay is described as follows: Induction of apoptosis in human OVCAR-3 cells assessed as early apoptotic cell at 10 uM after 48 hrs by Annexin V-FITC/PI staining based flow cytometry (reference value: 1.58%). The class given is functional. Background: A flow cytometer gives signals particle by particle.
For assay [4], the system named is OVCAR-3. In words: Induction of apoptosis in human OVCAR-3 cells assessed as late apoptotic cell at 10 uM after 48 hrs by Annexin V-FITC/PI staining based flow cytometry (reference value: 0.118%). It counts as functional.
Assay [5] deals with OVCAR-3. The assay is described as follows: Induction of apoptosis in human OVCAR-3 cells assessed as necrotic cell at 10 uM after 48 hrs by Annexin V-FITC/PI staining based flow cytometry (reference value: 0.00%). It counts as functional.
The test system of assay [6] is OVCAR-3. The assay is described as follows: Induction of apoptosis in human OVCAR-3 cells assessed as viable cell at 10 uM after 48 hrs by Annexin V-FITC/PI staining based flow cytometry (reference value: 98.3%). The class given is functional.
Assay [7] deals with OVCAR-3. The assay is described as follows: Induction of apoptosis in human OVCAR-3 cells assessed as viable cell at 10 uM after 48 hrs in presence of 4C-TPPBr by Annexin V-FITC/PI staining based flow cytometry (reference value: 98.3%). It counts as functional.
For assay [8], the system named is OVCAR-3. The assay is described as follows: Induction of apoptosis in human OVCAR-3 cells assessed as necrotic cell at 10 uM after 48 hrsin presence of 4C-TPPBr by Annexin V-FITC/PI staining based flow cytometry (reference value: 0.00%). It counts as functional. The note with it: time 48 hrs.
Assay [9] has as its system OVCAR-3. In words: Induction of apoptosis in human OVCAR-3 cells assessed as late apoptotic cell at 10 uM after 48 hrs in presence of 4C-TPPBr by Annexin V-FITC/PI staining based flow cytometry (reference value: 0.118%). It counts as functional.
Assay [10] deals with OVCAR-3. In words: Induction of apoptosis in human OVCAR-3 cells assessed as early apoptotic cell at 10 uM after 48 hrs in presence of 4C-TPPBr by Annexin V-FITC/PI staining based flow cytometry (reference value: 1.58%). The class given is functional.
In assay [11] the test system is A549. In words: Potency index, ratio of cisplatin IC50 to test compound IC50 for human A549 cells. The class given is functional.
Assay [12] can be described thus: Selectivity index ratio of IC50 for HUVEC to IC50 for human OVCAR3 cells.
In assay [13] the test system is OVCAR-3. The assay is described as follows: Induction of apoptosis in human OVCAR-3 assessed as nuclear blebbing measured after 48 hrs by Hoechst 33258 staining based fluorescence microscopic analysis. The class given is functional, cell-based. The following applies: dose 3-10 µM.
Assay [14] deals with OVCAR-3. The assay is described as follows: Induction of apoptosis in human OVCAR-3 assessed as nuclear rounding measured after 48 hrs by Hoechst 33258 staining based fluorescence microscopic analysis. The class given is functional, cell-based. The note with it: dose 3-10 µM.
Assay [15] concerns OVCAR-3. The assay is described as follows: Induction of mitochondrial membrane potential loss in human OVCAR-3 cells assessed as mitochondrial depolarization by measuring green fluorescence at 3 uM measured after 48 hrs by JCI staining based fluorescence microscopy (reference value: 3.3 %). The class given is functional.
The subject of assay [16] is OVCAR-3. In words: Induction of mitochondrial membrane potential loss in human OVCAR-3 cells assessed as mitochondrial depolarization by measuring green fluorescence at 10 uM measured after 48 hrs by JCI staining based fluorescence microscopy (reference value: 3.3 %). The class given is functional.
Assay [17] concerns OVCAR-3. The assay is described as follows: Induction of mitochondrial membrane potential loss in human OVCAR-3 cells assessed as mitochondrial depolarization by measuring green fluorescence at 30 uM measured after 48 hrs by JCI staining based fluorescence microscopy (reference value: 3.3 %). The class given is functional.
In assay [18] the test system is OVCAR-3. In words: Induction of heme-mediated cell death in human OVCAR-3 cells assessed as reduction in cell viability at 3 to 30 uM pretreated with delta-aminolevulinic acid followed by compound addition by Hoechst 33258 staining based assay. The note with it: dose 3-30 µM.
Assay [19] has as its system OVCAR-3. The assay is described as follows: Induction of heme-mediated cell death in human OVCAR-3 cells assessed as reduction in cell viability at 3 to 30 uM pretreated with succinyl-acetone followed by compound addition by Hoechst 33258 staining based assay. The note with it: dose 3-30 µM.
In assay [20] the test system is OVCAR-3. The assay is described as follows: Induction of apoptosis in human OVCAR-3 assessed as nuclear shrinkage measured after 48 hrs by Hoechst 33258 staining based fluorescence microscopic analysis. It counts as functional, cell-based. The following applies: dose 3-10 µM.
The test system of assay [21] is OVCAR-3. The assay is described as follows: Potency index, ratio of cisplatin IC50 to test compound IC50 for human OVCAR-3 cells. The class given is functional.
In assay [22] the test system is OVCAR-3. In words: Induction of ROS generation in human OVCAR-3 cells measured after 48 hrs by DCFH-DA staining based fluorescence microscopy. It counts as functional, cell-based. The note with it: dose 1-10 µM.
Assay [23] relates to OVCAR-3. The assay is described as follows: Induction of ROS generation in human OVCAR-3 cells at 1 to 10 uM measured after 48 hrs in presence of N-acetyl cysteine by DCFH-DA staining based fluorescence microscopy. It counts as functional, cell-based. The following applies: dose 1-10 µM.
The test system of assay [24] is OVCAR-3. The assay is described as follows: Cytotoxicity against human OVCAR-3 cells at 1 to 10 uM measured after 72 hrs in presence of N-acetyl cysteine by MTT assay. It counts as functional, cell-based. The following applies: dose 1-10 µM.

With `C[C@H]1[C@H](OC(=O)CCC(=O)O)O[C@@H]2O[C@@]3(C)CC[C@H]4[C@H](C)CC[C@@H]1[C@@]24OO3` [ARTESUNATE], the 50% inhibitory concentration (IC50) in the assay on SMMC-7721 amounted to 72.3 µM; in the assay on HepG2, 47 µM; with OVCAR-3 [1] it was 67.3 µM; in the assay with A549 [2], 5.4 µM; in the assay on J82 it was 75.7 µM; with HUVEC it was 86.1 µM.
Take `C[C@H]1[C@@H](O)O[C@@H]2O[C@@]3(C)CC[C@H]4[C@H](C)CC[C@@H]1[C@@]24OO3` [ARTENIMOL]: the IC50 was 61.4 µM with SMMC-7721; 73.6 µM in the assay on HepG2; 87.2 µM in the assay with OVCAR-3 [1]; 27.8 µM in the assay with A549 [2]; 146 µM with J82; 180 µM in the assay with HUVEC. The Activity is given as 3.61% in the assay with OVCAR-3 [3]; 1.97% with OVCAR-3 [4]; 0.062% with OVCAR-3 [5]; 94.4% in the assay with OVCAR-3 [6]; 95.7% with OVCAR-3 [7]; 0.01% with OVCAR-3 [8]. For the same compound, the Activity amounted to 1.56% in the assay with OVCAR-3 [9] and 2.74% in the assay with OVCAR-3 [10].
`C[C@H]1[C@H](OC(=O)CCC(=O)OCCC[P+](c2ccccc2)(c2ccccc2)c2ccccc2)O[C@@H]2O[C@@]3(C)CC[C@H]4[C@H](C)CC[C@@H]1[C@@]24OO3`: the IC50 in the assay on SMMC-7721 turned out to be 23.6 µM; with HepG2 it was 13 µM; in the assay on OVCAR-3 [1], 16.6 µM; in the assay on A549 [2], 5.5 µM; with J82 it was 43.8 µM; in the assay with HUVEC, 18.3 µM.
As to `C[C@H]1[C@H](OC(=O)CCC[P+](c2ccccc2)(c2ccccc2)c2ccccc2)O[C@@H]2O[C@@]3(C)CC[C@H]4[C@H](C)CC[C@@H]1[C@@]24OO3`, the half-inhibitory concentration (IC50) in the assay with SMMC-7721 stood at 34.2 µM; in the assay with HepG2 it was 35.7 µM; in the assay on OVCAR-3 [1], 15.8 µM; in the assay with A549 [2] it was 12.2 µM; with J82, 115 µM; in the assay on HUVEC, 116 µM.
As for `O=C(O)CCCC[P+](c1ccccc1)(c1ccccc1)c1ccccc1.[Br-]`, the Activity in the assay on OVCAR-3 [3] is 5.81%; with OVCAR-3 [4] it was 0.625%; with OVCAR-3 [5] it was 1.55%; in the assay with OVCAR-3 [6], 92%.
As to `C[C@H]1[C@H](OC(=O)CCC(=O)OCCCCC[P+](c2ccccc2)(c2ccccc2)c2ccccc2)O[C@@H]2O[C@@]3(C)CC[C@H]4[C@H](C)CC[C@@H]1[C@@]24OO3`, the IC50 in the assay on SMMC-7721 was determined as 13 µM; with HepG2, 16.1 µM; with OVCAR-3 [1] it was 6.6 µM; with A549 [2] it was 5.6 µM; in the assay on J82 it was 29.3 µM; in the assay with HUVEC, 27.5 µM.
Turning to `C[C@H]1[C@H](OC(=O)CCCCC[P+](c2ccccc2)(c2ccccc2)c2ccccc2)O[C@@H]2O[C@@]3(C)CC[C@H]4[C@H](C)CC[C@@H]1[C@@]24OO3.[Br-]`, the IC50 was 11.9 µM with SMMC-7721; 5.3 µM with HepG2; 7.1 µM with OVCAR-3 [1]; 2.7 µM with A549 [2]; 13.9 µM in the assay with J82; 9.1 µM in the assay on HUVEC. Further, the “Ratio IC50” value in the assay on A549 [11] stood at 4.8.
`C[C@H]1[C@H](OC(=O)CC[P+](c2ccccc2)(c2ccccc2)c2ccccc2)O[C@@H]2O[C@@]3(C)CC[C@H]4[C@H](C)CC[C@@H]1[C@@]24OO3`: the half-maximal inhibitory concentration (IC50) was 62.7 µM in the assay with SMMC-7721; 1.2 µM in the assay on HepG2; 35.7 µM with OVCAR-3 [1]; 26.5 µM with A549 [2]; 78.8 µM in the assay on J82; 66.5 µM with HUVEC.
Regarding `C[C@H]1[C@H](OC(=O)CCCC[P+](c2ccccc2)(c2ccccc2)c2ccccc2)O[C@@H]2O[C@@]3(C)CC[C@H]4[C@H](C)CC[C@@H]1[C@@]24OO3.[Br-]`, the IC50 came to 18 µM with SMMC-7721; 5.2 µM in the assay with HepG2; 3 µM with OVCAR-3 [1]; 4.7 µM in the assay on A549 [2]; 41.9 µM in the assay with J82; 24.5 µM in the assay on HUVEC. Also, the “Ratio IC50” value in [12] came out at 8.2; in the assay with A549 [11] it was 4.8; in the assay on OVCAR-3 [21], 4.4. Further, the Activity in the assay on OVCAR-3 [3] was 10.5%; in the assay on OVCAR-3 [4], 4.04%; with OVCAR-3 [5] it was 0.078%; in the assay with OVCAR-3 [6], 85.4%; in the assay with OVCAR-3 [13] it was “Dose-dependent effect”; in the assay on OVCAR-3 [14], “Dose-dependent effect”. Besides, the Activity was 17.2% in the assay on OVCAR-3 [15], 55.4% in the assay on OVCAR-3 [16], 95.5% with OVCAR-3 [17] and “Dose-dependent effect” in the assay on OVCAR-3 [20]. Besides, the result in the assay on OVCAR-3 [18], in the assay with OVCAR-3 [19], in the assay with OVCAR-3 [23] and with OVCAR-3 [24] was inactive. For the same compound, the result in the assay with OVCAR-3 [22] was Active.
